# Laboratory results as given in PMC5954004, “19th European Symposium on Radiopharmacy and Radiopharmaceuticals (ESRR’18)” (EJNMMI Radiopharmacy and Chemistry, 2018).
# Read-outs that look alike come from different tables or passages of the source.
# Tests used:
# [1] = tested on: Raji cells expressing CD20; test: binding of 68Ga-Tz-conjugate after binding of Rtx-TCO to Raji cells; format: cell-based
# [2] = 68Ga-labelled conjugates
# Experimental: (§3) Tz functionalization was performed by reaction with NHS-PEG5-Tz with FSC (resulting in the trimer FSC-(PEG5-Tz)3), MAFC (resulting in the dimer MAFC-(PEG5-Tz)2) and DAFC (resulting in the monomer DAFC-(PEG5-Tz), starting from its ferric complex with final iron removal by EDTA, HPLC purification and characterization by MS. ^68Ga-labelling was performed in acetate buffer (pH 4.5) at high s.a., resulting complexes were characterized by HPLC, protein binding, log P and stability was assessed. Rituximab was functionalized with NHS-TCO according to published procedures (Rtx-TCO). Binding of Tz-conjugates to TCO was assessed on Rtx-TCO immobilized 96well plates as well as after binding of Rtx-TCO vs Rtx to Raji cells expressing CD20 followed by incubation with 68Ga-Tz-conjugate. Biodistribution was studied in normal balb-c mice.
# [3] = 68Ga-labelled conjugates; remark: listed apart in the source
# Experimental: as §3
# [4] = 1h p.i., normal balb-c mice
# Experimental: as §3
# [5] = 37°C, 24h incubation
# Experimental: Methods: 177Lu-DOTATATE (Lutathera®) was diluted to 1/5th in saline, 5% Glucose, Bicarbonate 8.4% solution, Ringer-Lactate, octreotide solution, octreotide LAR or incubated at 37°C in plasma or plasma enriched with 10% de octreotide. Radiochemical purity (RPC) was determined by ITLC-SG in 0.1mol/L sodium citrate pH=3. […] RPC was also determined using C18 Sep-Pack-Plus cartridge (Waters, USA). The free radionuclide was eluted with 5mL of 0.1mol/L acetate buffer pH=3 and the labelled peptide with 5mL of methanol, and hydroxylated Lu-177 remained inside the cartridge. Mixtures were then analyzed immediately, 30min and 24h after dilution. […] Binary comparisons to the undiluted product were made by a Mann-and-Whitney U test and stability over time checked by a 1-way ANOVA (p < 5%).
# [6] = target: T1, mGluR1 (Mus musculus, UniProt P97772); test: [11C]ITDM microPET in mouse brain; format: in vivo
# T1 construct: PET probe for imaging the kinetics of mGluR1 in mouse brain; from tissue; host or cells: brain of living WT Q175DN mice
# T1 sequence (P97772 21-1199): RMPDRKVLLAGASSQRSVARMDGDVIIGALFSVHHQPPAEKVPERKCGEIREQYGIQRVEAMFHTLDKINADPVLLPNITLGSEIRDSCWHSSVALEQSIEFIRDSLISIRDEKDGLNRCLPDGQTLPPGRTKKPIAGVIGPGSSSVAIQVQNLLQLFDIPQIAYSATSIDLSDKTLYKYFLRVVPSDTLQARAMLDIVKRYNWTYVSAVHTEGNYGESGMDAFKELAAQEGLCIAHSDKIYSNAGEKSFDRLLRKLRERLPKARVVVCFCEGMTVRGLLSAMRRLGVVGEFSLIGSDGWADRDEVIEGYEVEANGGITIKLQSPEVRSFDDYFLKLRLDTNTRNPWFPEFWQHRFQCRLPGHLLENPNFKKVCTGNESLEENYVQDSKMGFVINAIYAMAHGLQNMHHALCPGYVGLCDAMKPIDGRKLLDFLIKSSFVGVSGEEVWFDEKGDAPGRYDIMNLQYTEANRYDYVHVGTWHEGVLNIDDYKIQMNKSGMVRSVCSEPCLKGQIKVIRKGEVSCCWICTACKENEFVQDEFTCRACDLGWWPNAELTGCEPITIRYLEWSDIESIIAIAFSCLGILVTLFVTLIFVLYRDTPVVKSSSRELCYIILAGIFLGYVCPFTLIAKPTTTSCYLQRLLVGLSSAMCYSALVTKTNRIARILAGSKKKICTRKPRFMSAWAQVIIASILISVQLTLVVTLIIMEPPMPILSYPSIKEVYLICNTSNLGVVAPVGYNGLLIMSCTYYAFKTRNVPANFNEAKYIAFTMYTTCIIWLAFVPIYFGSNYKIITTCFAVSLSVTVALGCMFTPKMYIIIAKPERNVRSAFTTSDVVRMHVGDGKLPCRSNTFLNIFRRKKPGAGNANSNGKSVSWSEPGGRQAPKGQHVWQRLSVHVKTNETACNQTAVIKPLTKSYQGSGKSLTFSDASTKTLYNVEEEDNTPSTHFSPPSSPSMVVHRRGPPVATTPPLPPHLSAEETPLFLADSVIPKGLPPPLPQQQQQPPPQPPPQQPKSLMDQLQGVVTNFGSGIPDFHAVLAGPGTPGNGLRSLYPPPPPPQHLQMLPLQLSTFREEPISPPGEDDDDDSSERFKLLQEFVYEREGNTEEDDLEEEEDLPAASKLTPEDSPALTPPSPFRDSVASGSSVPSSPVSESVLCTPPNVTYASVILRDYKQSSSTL
# Experimental: Methods: We validated [^11C]ITDM as a PET probe for imaging the kinetics of mGluR1 in mouse brain. [^11C]ITDM was prepared by modification of a previously described method^1 in a module (Comecer Netherlands) adapted for automated production. In a cooled solution containing the arylstannane precursor (1.9mg), K2CO3 (2.1mg), CuCl2 (1.5mg), Pd2(dba)3 (1.3mg) and P(o-tol)3 (1.7mg) in DMF purged with N2, [^11C]MeI was bubbled, followed by reaction at 65°C for 5min. The mixture was purified by reverse phase semi-preparative HPLC (tR=8.5min), using MeCN:H2O:Et3N (6:4:0.01, V/V/V) as mobile phase (2.7mL/min) followed by sterile formulation into ethanolic saline containing 0.5% ascorbic acid, using a C18 Sep-Pak cartridge. For in vivo evaluation, WT Q175DN mice (n = 9; 11 months old) were intravenously (i.v.) injected with [^11C]ITDM (5.69±2.4MBq; injected mass=0.87±0.33μg/kg) and dynamically scanned for 90min (Siemens Inveon μPET/CT). To validate target engagement, blocking and displacement studies with mGluR1 antagonist YM-202074 (20mg/kg; i.v.; 2min before and 30min after tracer injection, respectively) were performed. Total volume of distribution (VT) (from 2TCM) was calculated noninvasively using an image-derived input function (IDIF) in several brain regions.
# [7] = target: T2, GABAB receptors (Mus musculus, UniProt Q9WV18); format: in vivo, mice
# T2 construct: from tissue; host or cells: brain of CD-1 male mice (in vivo / ex vivo)
# T2 sequence (Q9WV18 20-960): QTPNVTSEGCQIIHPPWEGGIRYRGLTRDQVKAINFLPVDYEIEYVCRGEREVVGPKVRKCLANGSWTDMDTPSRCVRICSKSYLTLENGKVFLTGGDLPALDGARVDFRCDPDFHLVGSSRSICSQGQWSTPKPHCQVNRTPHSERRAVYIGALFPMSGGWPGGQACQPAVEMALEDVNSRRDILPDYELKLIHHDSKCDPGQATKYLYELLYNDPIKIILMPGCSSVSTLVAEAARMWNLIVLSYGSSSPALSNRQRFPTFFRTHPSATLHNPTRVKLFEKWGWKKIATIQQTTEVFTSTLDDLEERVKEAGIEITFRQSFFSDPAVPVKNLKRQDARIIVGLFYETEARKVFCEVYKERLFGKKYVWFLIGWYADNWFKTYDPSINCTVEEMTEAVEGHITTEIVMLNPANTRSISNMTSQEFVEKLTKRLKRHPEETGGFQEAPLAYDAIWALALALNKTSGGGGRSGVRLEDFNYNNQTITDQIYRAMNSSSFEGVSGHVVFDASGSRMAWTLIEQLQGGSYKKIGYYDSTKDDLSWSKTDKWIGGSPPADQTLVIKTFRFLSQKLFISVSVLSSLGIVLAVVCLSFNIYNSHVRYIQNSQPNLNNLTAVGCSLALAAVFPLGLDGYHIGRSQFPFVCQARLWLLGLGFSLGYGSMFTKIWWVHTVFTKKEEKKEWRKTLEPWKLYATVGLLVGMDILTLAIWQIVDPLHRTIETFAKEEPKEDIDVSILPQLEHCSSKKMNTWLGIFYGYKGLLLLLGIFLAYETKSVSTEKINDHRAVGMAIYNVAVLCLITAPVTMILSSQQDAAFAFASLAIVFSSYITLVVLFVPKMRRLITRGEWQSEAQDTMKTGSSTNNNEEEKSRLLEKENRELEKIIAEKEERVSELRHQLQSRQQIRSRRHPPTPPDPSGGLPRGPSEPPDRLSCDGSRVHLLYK
# T2 sequence (Q80T41 41-940 partner): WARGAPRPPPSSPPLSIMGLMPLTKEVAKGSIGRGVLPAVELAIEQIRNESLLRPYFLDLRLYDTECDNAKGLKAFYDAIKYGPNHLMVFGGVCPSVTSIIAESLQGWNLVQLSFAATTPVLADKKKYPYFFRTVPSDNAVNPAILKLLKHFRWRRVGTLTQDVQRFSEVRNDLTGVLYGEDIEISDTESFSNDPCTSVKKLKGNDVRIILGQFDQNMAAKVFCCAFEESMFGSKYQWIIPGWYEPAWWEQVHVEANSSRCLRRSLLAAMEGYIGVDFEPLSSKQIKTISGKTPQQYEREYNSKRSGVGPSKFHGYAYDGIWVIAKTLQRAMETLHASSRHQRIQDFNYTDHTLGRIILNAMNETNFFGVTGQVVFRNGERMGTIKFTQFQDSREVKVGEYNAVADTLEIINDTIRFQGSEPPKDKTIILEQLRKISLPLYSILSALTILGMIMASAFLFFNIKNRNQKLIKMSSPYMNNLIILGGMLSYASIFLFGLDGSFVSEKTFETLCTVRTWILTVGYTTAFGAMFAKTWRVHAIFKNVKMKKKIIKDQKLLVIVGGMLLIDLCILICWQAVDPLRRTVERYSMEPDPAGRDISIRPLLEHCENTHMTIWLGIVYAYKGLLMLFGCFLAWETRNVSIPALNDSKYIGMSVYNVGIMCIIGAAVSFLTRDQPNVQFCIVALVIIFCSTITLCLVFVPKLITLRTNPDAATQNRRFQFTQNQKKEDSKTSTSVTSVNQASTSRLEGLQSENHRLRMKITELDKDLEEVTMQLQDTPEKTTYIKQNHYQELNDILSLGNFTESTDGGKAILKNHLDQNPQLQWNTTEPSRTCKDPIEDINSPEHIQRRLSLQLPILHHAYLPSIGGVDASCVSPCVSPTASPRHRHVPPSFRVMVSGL
# Experimental: Methods: New GABAB agonists, fluoropyridylmethoxy analogues of baclofen, were synthesized. The in vitro potency of these new compounds was determined commercially. […] The regional brain distribution of the radiolabeled [^18F]1 was studied in CD-1 male mice.
# [8] = tested on: A431-CCK2R cells; test: internalisation into A431-CCK2R cells; format: cell-based, human
# [9] = after 10 min, BALB/c mice in vivo
# Experimental: (§1) Methods: The new MG analogue DOTA-MGS5 was designed based on a combination of the substitutions applied in peptide derivatives previously developed by our group (1). The in vitro and in vivo characterisation after radiolabelling with In-111 and Lu-177 included stability analyses of the radioligands incubated in rat tissue homogenates and after injection into BALB/c mice. Receptor interaction in terms of receptor affinity and cell uptake was analysed using A431 human epidermoid carcinoma cells transfected with human CCK2R (A431-CCK2R) and mock-transfected cells (A431-mock). The targeting potential was evaluated by small animal dual modality single photon emission computed tomography (NanoSPECT/CT) as well as ex vivo biodistribution studies in tumour bearing BALB/c nude mice up to 4 h after injection.
# [10] = in vivo; conditions: BALB/c nude, mouse, total radioactivity
# Experimental: as §1
# [11] = plutonium decorporation in rats; format: in vivo; conditions: delayed administration, of the levels in untreated control rats
# Experimental: Methods: Unilamellar liposomes (DSPC/Cholesterol/DSPE 69:30:1) were used to encapsulate DTPA (25mM). For decorporation experiments, rats were first contaminated by intravenous administration of the soluble citrate form of ^238Pu (4 to 10.3 kBq), before injection of DTPA, marketed free form or encapsulated in liposomes (2.25 at 6.74 μmol/kg). Treatment schedules started at one hour (prompt treatment) or at seven days (delayed treatment) after contamination and were given as a single injection or repeated injections. A prophylactic single treatment was also tested given at three days before contamination. Organs of interest (liver, bone and spleen mainly) and excreta were collected at different times for measurement of Pu alpha activity.
# [12] = target: gastrin-releasing peptide receptor (GRPr) (human (endogenous in PC-3, T47D, MDA-MB-231)) (UniProt P30550)
# Sequence of gastrin-releasing peptide receptor (GRPr) (human (endogenous in PC-3, T47D, MDA-MB-231)) (P30550 whole entry, stated change not applied): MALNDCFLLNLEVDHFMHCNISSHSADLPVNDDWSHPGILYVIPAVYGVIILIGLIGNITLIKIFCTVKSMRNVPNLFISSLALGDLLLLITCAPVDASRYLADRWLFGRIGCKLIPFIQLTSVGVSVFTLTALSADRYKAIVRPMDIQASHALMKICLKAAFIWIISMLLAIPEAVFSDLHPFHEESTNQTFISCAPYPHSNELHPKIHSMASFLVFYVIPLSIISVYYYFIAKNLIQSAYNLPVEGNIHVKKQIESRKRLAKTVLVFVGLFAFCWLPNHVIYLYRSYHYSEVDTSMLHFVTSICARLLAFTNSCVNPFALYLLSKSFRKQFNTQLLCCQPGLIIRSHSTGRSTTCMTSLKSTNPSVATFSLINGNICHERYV
# [13] = tested on: AsPC-1 cells; test: clonogenic survival assay, AsPC-1; format: cell-based
# Experimental: (§2) Methods: Flow cytometry: EGFR density was measured on AsPC-1, PANC-1, MiaPACA-2, and Capan-1 cell lines. Cells were incubated with panitumumab for 60 min, then with Alexa Fluor 647 anti-human IgG immunoconjugates for 30 min at 4°C, then run on a flow cytometer. Clonogenic survival assays: Cells were treated with γ-radiation (0-8Gy) or ^177Lu-RIT (0-3MBq/72nM) then seeded in into 6-well plates and allowed to grow at 37°C, 5% CO2, for 14 days. Then colonies were fixed/stained and counted. Subcellular fractionation: Cells were treated with ^177Lu-RIT (1MBq/72nM) for 1, 3, 4, and 24 hours. Radioactivity associated with cell surface, cytoplasm, and nucleus was separated then measured in a γ-counter.
# [14] = tested on: PANC-1 cells; test: clonogenic survival assay, PANC-1; format: cell-based
# Experimental: as §2
# [15] = tested on: MIAPaca-2 cells; test: clonogenic survival assay, MIAPaca-2; format: cell-based
# Experimental: as §2
# [16] = tested on: Capan-1 cells; test: clonogenic survival assay, Capan-1; format: cell-based
# Experimental: as §2
# [17] = plasma enriched with octreotide
# [18] = 2TCM, image-derived input function, WT Q175DN mice n = 9
compound,measurement,setting,value
"CC(=O)NC1CCCN(O)C(=O)/C=C(/C)CCOC(=O)C(NC(=O)CCOCCOCCOCCOCCOCCC(=O)NCc2ccc(-c3nncnn3)cc2)CCCN(O)C(=O)/C=C(/C)CCOC(=O)C(NC(C)=O)CCCN(O)C(=O)/C=C(/C)CCOC1=O (stereo not drawn) (68Ga complex, metal not drawn) [DAFC-(PEG5Tz)]",binding after binding of Rtx-TCO to CD20 expressing cells,[1],4.01 ± 0.24%
same,protein binding,[2],exceeded 50%
same,log p,[3],below -1
same,blood levels,[4],1 %ID/g
"C/C1=C/C(=O)N(O)CCCC(NC(=O)CCOCCOCCOCCOCCOCCC(=O)NCc2ccc(-c3nncnn3)cc2)C(=O)OCC/C(C)=C\C(=O)N(O)CCCC(NC(=O)CCOCCOCCOCCOCCOCCC(=O)NCc2ccc(-c3nncnn3)cc2)C(=O)OCC/C(C)=C\C(=O)N(O)CCCC(NC(=O)CCOCCOCCOCCOCCOCCC(=O)NCc2ccc(-c3nncnn3)cc2)C(=O)OCC1 (stereo not drawn) (68Ga complex, metal not drawn) [FSC-(PEG5Tz)3]",binding after binding of Rtx-TCO to CD20 expressing cells,[1],15.9 ± 0.88%
same,protein binding,[2],exceeded 50%
same,log p,[3],below -1
same,blood levels,[4],3 %ID/g
"CC(=O)NC1CCCN(O)C(=O)/C=C(/C)CCOC(=O)C(NC(=O)CCOCCOCCOCCOCCOCCC(=O)NCc2ccc(-c3nncnn3)cc2)CCCN(O)C(=O)/C=C(/C)CCOC(=O)C(NC(=O)CCOCCOCCOCCOCCOCCC(=O)NCc2ccc(-c3nncnn3)cc2)CCCN(O)C(=O)/C=C(/C)CCOC1=O (stereo not drawn) (68Ga complex, metal not drawn) [MAFC-(PEG5Tz)2]",binding after binding of Rtx-TCO to CD20 expressing cells,[1],7.75 ± 0.56%
same,protein binding,[2],exceeded 50%
same,log p,[3],below -1
"C[C@@H](O)[C@H](NC(=O)[C@@H]1CSSC[C@H](NC(=O)[C@@H](Cc2ccccc2)NC(=O)CN2CCN(CC(=O)O)CCN(CC(=O)O)CCN(CC(=O)O)CC2)C(=O)N[C@@H](Cc2ccc(O)cc2)C(=O)N[C@H](Cc2c[nH]c3ccccc23)C(=O)N[C@@H](CCCCN)C(=O)N[C@@H]([C@@H](C)O)C(=O)N1)C(=O)O [177Lu-DOTATATE, metal not drawn]",hydroxylated Lutetium,[5]; [17],6.3%±1.8%
same,unbound lutetium,[5]; [17],4.8%±0.8%
same,hydroxylated Lutetium,"[5]; plasma, mean±SD n = 3-4",4.9%±1.3%
same,unbound lutetium,"[5]; plasma, mean±SD n = 3-4",4.2%±0.6%
COCCN(C)Cc1ccc2c(c1)nc1sc(C(=O)N(C)C3CCCCC3)cn12 [YM-202074],blockade and displacement of [11C]ITDM,"[6]; 20mg/kg i.v., 2min before and 30min after tracer injection, all investigated brain regions",significant blockade and displacement
CC(C)Nc1cc(-c2csc(N(C)C(=O)c3ccc([11CH3])cc3)n2)ncn1 [[^11C]ITDM],VT cerebellum,[6]; [18],9.1±2.1 mL/cm^3
same,VT thalamus,[6]; [18],8.2±2.1 mL/cm^3
"NC[C@H](CC(=O)O)c1ccc(Cl)c(OCc2ccnc(F)c2)c1 [[^18F]1, (R)-4-amino-3-(4-chloro-3-((2-fluoropyridin-4-yl)methoxy)phenyl) butanoic acid]",mouse brain uptake,[7]; CD-1 male mice,1 % ID/g tissue
same,inhibition of accumulation in the mouse brain,[7]; pre-injection of a selective GABAB agonist,35%
"CCCC[C@@H](C(=O)N[C@@H](CC(=O)O)C(=O)N[C@@H](Cc1cccc2ccccc12)C(N)=O)N(C)C(=O)[C@H](Cc1c[nH]c2ccccc12)NC(=O)CNC(=O)[C@H](Cc1ccc(O)cc1)NC(=O)[C@H](C)NC(=O)[C@@H](CCC(=O)O)NC(=O)CN1CCN(CC(=O)O)CCN(CC(=O)O)CCN(CC(=O)O)CC1 [^111In-DOTA-MGS5, metal not drawn]",internalisation into A431-CCK2R cells,[8]; after 1 h,> 40%
same,internalisation into A431-CCK2R cells,[8]; after 4 h,> 80%
same,"stability in blood, intact peptide",[9],> 80%
same,tissue uptake at 4 h,"[10]; A431-CCK2R tumour, tumour uptake, 4 h p.i.",23.5 ± 1.3 %ID/g
"CCCC[C@@H](C(=O)N[C@@H](CC(=O)O)C(=O)N[C@@H](Cc1cccc2ccccc12)C(N)=O)N(C)C(=O)[C@H](Cc1c[nH]c2ccccc12)NC(=O)CNC(=O)[C@H](Cc1ccc(O)cc1)NC(=O)[C@H](C)NC(=O)[C@@H](CCC(=O)O)NC(=O)CN1CCN(CC(=O)O)CCN(CC(=O)O)CCN(CC(=O)O)CC1 [^177Lu-DOTA-MGS5, metal not drawn]","stability in blood, intact peptide",[9],> 80%
same,tissue to tissue ratio at 4 h,[10]; A431-CCK2R tumour / kidneys,> 6
same,tissue to tissue ratio at 4 h,[10]; A431-CCK2R tumour / stomach,> 3
O=C(O)CN(CCN(CC(=O)O)CC(=O)O)CCN(CC(=O)O)CC(=O)O [free DTPA],decrease of hepatic Pu level,[11],19%
same,decrease of skeletal Pu level,[11],12%
same,decrease of splenic Pu level,[11],24%
"GRPr antagonist H2N-4-amino-1-carboxymethyl piperidine-[(R)-Phe^6, Sta^13]BN(6-14) linked to the chelator HBED-CC, labelled with 68Ga (peptide)","cell bound, % given radioactivity (MDA-MB-231+ cells, 1 h) (% given radioactivity)",[12],3
same,"cell bound, % given radioactivity (PC-3+ cells, 1 h) (% given radioactivity)",[12],30
same,"cell bound, % given radioactivity (T47D+ cells, 1 h) (% given radioactivity)",[12],9
^177Lu-RIT: panitumumab modified with a NOTA chelator and radiolabeled with 177Lu,D10 (clonogenic survival reduced to 10%),[13]; AsPc-1,3.1 MBq
same,RBE,"[13]; AsPc-1, compared to γ-radiation",0.2
same,D10 after 177Lu-RIT,"[13]; AsPc-1, microdosimetry",16.9 Gy
same,D10 (clonogenic survival reduced to 10%),[14]; PANC-1,1.1 MBq
same,RBE,"[14]; PANC-1, compared to γ-radiation",1.0
same,D10 after 177Lu-RIT,"[14]; PANC-1, microdosimetry",5.7 Gy
same,D10 (clonogenic survival reduced to 10%),[15]; MIAPaca-2,6.0 MBq
same,RBE,"[15]; MIAPaca-2, compared to γ-radiation",0.2
same,D10 after 177Lu-RIT,"[15]; MIAPaca-2, microdosimetry",23.3 Gy
same,D10 (clonogenic survival reduced to 10%),[16]; Capan-1,1 MBq
same,RBE,"[16]; Capan-1, compared to γ-radiation",0.3
same,D10 after 177Lu-RIT,"[16]; Capan-1, microdosimetry",8.2 Gy
